Results as given in publication PMC8855532 (Journal of the American Chemical Society, 2022).

Biological target: 40-residue Alzheimer’s β-amyloid peptide (Aβ40) fibrils (Homo sapiens, UniProt P05067)
Test: HPLC titration of free/bound ligand on preformed fibrils
Format: binding

40-residue Alzheimer’s β-amyloid peptide (Aβ40) fibrils, sequence (P05067 672-711): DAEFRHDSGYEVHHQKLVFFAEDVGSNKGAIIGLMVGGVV

Kd: 1600 ± 200 nM
SMILES: CNc1ccc(-c2nc3ccc(O)cc3s2)cc1F [flutemetamol]
